Measurements taken from US9220746B2, “Compounds and methods for treating bone disorders and controlling weight” (The University of North Carolina at Chapel Hill, priority 2009, dated 2015).
“Also recorded” adds a separate entry of the source.

Columns and labels:
IGFBP-2 knockout mice [1] = experiment: Body weight and fat mass of IGFBP-2 knockout mice given the heparin binding peptide; assay type: in vivo, mouse; conditions: IGFBP-2 −/− mice, 50 mcg intraperitoneally three days per week, 6 week treatment; for Fat Mass: by MRI
Protocol: Further experiments have been carried out in which the knockout mice and control animals have been administered the mouse homologue of the heparin binding peptide. The peptide was administered to 8 animals in each group. The knockout animals weighed 30.4±1.5 gm whereas the control animals weighed 25.2±1.1 gm. The knockout animals that received the active peptide weighed 24.9±1.3 gm. […] More importantly when absolute fat mass was analyzed by MRI, highly significant differences were also present. The knockout mice had 6.21±0.76 grams of fat. The control mice had 3.82±0.67 grams and the knockout mice administered the heparin binding peptide had 3.67±0.36 grams. Again these are highly significant differences.

BP2−/− mice = experiment: Flow cytometry of white blood cell populations in peripheral blood; assay type: in vivo, mouse; conditions: BP2−/− male mice, intraperitoneal injection, vs PBS injected controls
IGFBP-2 knockout mice [2] = experiment: Glucose tolerance test in IGFBP-2 knockout mice; assay type: in vivo, mouse; conditions: knockout animals with impaired glucose tolerance; not significantly different from control mice
Igfbp2−/− COBs and BMSCs = experiment: In vitro osteoblastogenesis of calvarial osteoblasts and bone marrow stromal cells (ALP, Alizarin Red staining); assay type: cell-based, mouse
Protocol: FIG. 1. The heparin-binding domain of IGFBP2 enhances osteoblastogenesis in vitro. a. Von Kossa staining was performed using tibia from 8 weeks old Igfbp2^+/+ and Igfbp2^−/− male mouse. b. Calvarial osteoblasts (COBs) were harvested from day 7 old male Igfbp2^+/+ and Igfbp2^−/− male mouse, and treated with osteogenic media in the presence of 2.5% FCS. At day 7, alkaline phosphatase (ALP) staining was performed. c and d. COBs and Bone marrow stromal cells (BMSCs) from Igfbp2^−/− mouse were treated with osteogenic media with pegylated heparin-binding domain peptide (PEG-HBD) in the presence of 10% FCS. ALP staining (day 7) and Alizarin Red staining (day 14) were performed (c). RNA was isolated at day 14 from BMSCs and expression of ALP, osteocalcin (OC) and Runx2 was analyzed by real-time PCR. Figures shown represent at least 3 independent experiments (n=3). Statistical difference was analyzed by student's t test. *; p<0.05.
FIG. 7. […] Igfbp2^−/− calvarial osteoblasts (COBs) were cultured with osteogenic media with PBS, control peptide (2 μg/ml) or heparin binding domain peptide (HBD-peptide) (2 μg/ml). Osteoblastogenesis was evaluated by Alizarin Red staining.
Neonatal calvarial osteoblasts were collected from 7-10 day old mice as previously described^53. Briefly, calvariae were digested 5 times with collagenase P and Trypsin. Cells released from digests 2 through 5 were collected as primary calvarial osteoblasts, and maintained in DMEM supplemented with 10% FCS and non-essential amino acids. Osteoblastogenesis of primary calvarial osteoblasts was carried out by treating cells with 4 mM β-glycerophosphate and 50 μg/ml ascorbic acid in αMEM. Bone marrow stromal cells (BMSCs) were harvested from femurs and tibias of 8 weeks old mice as described previously^10. Osteoblastogenesis of BMSCs was induced by the treatment with osteogenic media consisting of αMEM containing 10% FCS, 8 mM β-glycerophosphate, and 50 μg/ml ascorbic acid.

metacarpals = experiment: Metacarpal culture ex vivo (calcein incorporated area, length, width); assay type: cell-based, mouse
Protocol: FIG. 2. The heparin binding domain of IGFBP2 enhances periosteal expansion of metacarpals ex vivo. Metacarpals were collected from day 1 male mouse, and treated with osteogenic media with IGFBP2 (200 ng/ml) or the heparin-binding domain peptide (HBD-peptide) (2 μg/ml) in the presence or absence of IGF-1 (20 ng/ml) for 10 days. Bones were labeled with calcein (500 ng/ml) and calcein incorporated area was visualized (a) and longitudinal length of calcein incorporated area was quantified (b). Alcian blue and Von Kossa double staining was performed (c) and length and width of metacarpals were quantified (d). Statistical difference was analyzed by ANOVA followed by Bonferroni post-hoc test. Figures shown represent at least 3 independent experiments. Values are expressed as the mean±SEM (n=3-4). ^a; <0.05 vs PBS, ^b; <0.01 vs PBS, ^c; <0.001 vs PBS, ^d; <0.01 vs HBD, ^e; <0.05 vs IGF-I, ^f; <0.05 vs HBD.
Metacarpals were isolated from Igfbp2^−/− mice at 1-day old and incubated in DMEM containing 0.5% BSA, 50 μg/ml ascorbic acid and 1 mM β-glycerol phosphate for 10 days^54. Stimulants were added to culture media from day 1. At day 10, metacarpals were incubated in media containing calcein (500 ng/ml) for 2 hours for staining of calcium deposition, and images were obtained. Then, bones were fixed with 4% PFA, embedded in paraffin, and processed for Alcian blue and von Kossa double staining.

Igfbp2−/− mice = experiment: MicroCT of femurs and vertebrae (L5) after in vivo treatment of Igfbp2−/− mice; set-up: species or system mouse; conditions: in vivo administration, summary statement
Protocol: Igfbp2^+/+ and Igfbp2^−/− mice were administered with PBS or PEG-HBD-peptide (50 μg/day) intraperitoneally 5 times per week from 6 to 9 weeks of age. Dual-energy x-ray absorptiometry was performed before the initiation of treatment. Mice were injected with 20 mg/kg calcein intraperitoneally 7 days and 2 days before sample collection.
Microarchitecture of distal trabecular bone and midshaft cortical bone was analyzed with femurs and vertebrae (L5) by MicroCT (MicroCT40)^10. Approximately 100 slices were measured just proximal to the distal growth plate, with an isotropic pixel size of 12 μm and slice thickness of 12 μm. Midshaft cortical bone thickness was analysis in a similar fashion using approximately 18 slices obtained at the exact midpoint of the femur.

[3] = listed as heparin binding peptide

KHLSLEEPKKLRP (IGFBP-2 heparin binding domain-containing peptide sequence) [HBD-peptide]
Fat Mass (IGFBP-2 knockout mice [1]; listed as HBD): 3.67 ± 0.36 gms | Fat Mass (IGFBP-2 knockout mice [1]; [3]): 3.67±0.36 gms | Body Weight (IGFBP-2 knockout mice [1]; listed as HBD): 24.9 ± 1.3 gms | Body Weight (IGFBP-2 knockout mice [1]; [3]): 24.9±1.3 gms | percentages of differentiated lymphoid and myeloid cells (monocytes, macrophages, neutrophils) in peripheral blood (BP2−/− mice; listed as HBD): suppressed the percentages of mature monocytes, macrophages and neutrophils; also recorded: reduced the number of differentiated lymphoid and myeloid cells | percentages of differentiated lymphoid and myeloid cells (monocytes, macrophages, neutrophils) in peripheral blood (BP2−/− mice; listed as IGFBP-2 heparin binding domain (HBD) peptide): reduced the percentage of macrophages | glucose tolerance (IGFBP-2 knockout mice [2]): significantly improved | mineralization of Igfbp2−/− COBs (Alizarin Red) compared to PBS (Igfbp2−/− COBs and BMSCs; 2 μg/ml, osteogenic media): fully active | cell proliferation of osteoblasts and bone marrow stromal cells (alkaline phosphatase, alizarin red staining) (Igfbp2−/− COBs and BMSCs; compared to full length (FL) IGFBP-2 and control peptide): increased cell proliferation | bone mineralization phenotype of Igfbp2−/− bone marrow stromal cells and calvarial osteoblasts (Igfbp2−/− COBs and BMSCs; in vitro, summary statement): rescued the low bone mineralization phenotype | calcein incorporated area of metacarpals (metacarpals; 10 days, IGFBP2 200 ng/ml, peptides 2 μg/ml, IGF-1 20 ng/ml, vs PBS): significantly enhanced | width (and length) of metacarpals (metacarpals; 10 days, IGFBP2 200 ng/ml, peptides 2 μg/ml, vs PBS): increased the width of metacarpals | periosteal expansion and growth of Igfbp2−/− metacarpal explants (metacarpals; ex vivo, summary statement): stimulated periosteal expansion and growth | bone mass phenotype of Igfbp2−/− mice (trabecular bone mass, osteoblast number) (Igfbp2−/− mice): rescued the low bone mass phenotype | bone mass phenotype of Igfbp2−/− mice (trabecular bone mass, osteoblast number) (Igfbp2−/− mice; listed as HBD): trabecular bone mass was rescued and osteoblast number increased
